Values quoted from earlier work as cited in PMC8838197, “Coumarin-Resveratrol-Inspired Hybrids as Monoamine Oxidase B Inhibitors: 3-Phenylcoumarin versus trans-6-Styrylcoumarin” (Molecules, 2022).

System: MAO-B
Design: pIC50 MAO-B: unit not given here
Details: cited from earlier work; for pIC50 MAO-B: Table S8

| SMILES | pIC50 MAO-B | activity against MAO-B isoform (data set compounds) | MAO-B pIC50 (data set compounds) |
| --- | --- | --- | --- |
| Cc1ccc2oc(=O)c(-c3ccccc3)cc2c1 [Compound 1] | 6.547 |  |  |
| COc1ccc(-c2cc3cc(C)ccc3oc2=O)cc1 [Compound 2] | 7.884 |  |  |
| COc1cc(OC)cc(-c2cc3cc(C)ccc3oc2=O)c1 [Compound 3] | 8.047 |  |  |
| COc1cc(-c2cc3cc(C)ccc3oc2=O)cc(OC)c1OC [Compound 4] | 6.794 |  |  |
| COc1cccc(-c2cc3cc(C)ccc3oc2=O)c1 [Compound 5, 3-(3′-methoxyphenyl)-6-methylcoumarin] | 9.096 | picomolar range |  |
| COc1ccccc1-c1cc2cc(C)ccc2oc1=O [Compound 6] | 6.808 |  | > 6.5 |
| Cc1ccc2oc(=O)c(-c3ccccc3Br)cc2c1 [Compound 8] | 7.957 |  | > 6.5 |
| COc1ccc(-c2cc3cc(C)cc(Br)c3oc2=O)cc1 [Compound 9] | 8.491 |  |  |
| COc1cc(OC)cc(-c2cc3cc(C)cc(Br)c3oc2=O)c1 [Compound 10] | 8.148 |  | > 6.5 |
| COc1ccc2oc(=O)c(-c3cccc(C)c3)cc2c1 [Compound 12] | 7.768 |  | > 6.5 |
| COc1ccc2oc(=O)c(-c3ccc(C)cc3)cc2c1 [Compound 13] | 8.818 |  |  |
| CC(=O)COc1ccc2oc(=O)c(-c3ccc(C)cc3)cc2c1 [Compound 15] | 5.258 |  |  |
| Cc1ccc(-c2cc3cc(OC4CCCC4)ccc3oc2=O)cc1 [Compound 16] | 4.84 |  |  |
| Cc1cccc(-c2cc3cc(C)ccc3oc2=O)c1 [Compound 18] | 7.824 |  |  |
| COc1ccc(-c2cc3cc(C)ccc3oc2=O)cc1OC [Compound 19] | 8.564 |  |  |
| COc1cc(-c2cc3cc(C)ccc3oc2=O)ccc1Br [Compound 20] | 9.131 |  | > 6.5 |
| COc1ccc(-c2cc3cc(C)ccc3oc2=O)cc1Br [Compound 21] | 8.488 |  |  |
| COc1cc(OC)c(Br)c(-c2cc3cc(C)ccc3oc2=O)c1 [Compound 22] | 4.267 |  |  |
| CC(=O)COc1cccc(-c2cc3cc(C)ccc3oc2=O)c1 [Compound 25] | 6.745 |  |  |
| COc1ccc(-c2c(O)c3ccccc3oc2=O)cc1 [Compound 26] | 4.157 |  |  |
| COc1ccc(-c2c(O)c3cc(C)ccc3oc2=O)cc1 [Compound 27] | 4.494 |  |  |

| SMILES | pIC50 MAO-B | activity against MAO-B isoform (data set compounds) | MAO-B pIC50 (data set compounds) |
| --- | --- | --- | --- |
| COc1ccc(-c2c(O)c3cc(C)ccc3oc2=O)cc1Cl [Compound 29] | 4.37 |  |  |
| COc1cccc2cc(-c3ccccc3)c(=O)oc12 [Compound 34] | 6.824 |  |  |
| COc1cccc2cc(-c3ccc(Br)cc3)c(=O)oc12 [Compound 35] | 5.48 |  |  |
| Cc1cccc2cc(-c3ccc(Br)cc3)c(=O)oc12 [Compound 39] | 7.701 |  | > 6.5 |
| O=c1oc2ccccc2cc1-c1ccccc1 [Compound 40] | 4.928 |  |  |
| Cc1ccc(C(=O)Nc2cc3ccccc3oc2=O)cc1 [Compound 42] | 5.099 |  |  |
| COc1ccc(C(=O)Nc2cc3ccccc3oc2=O)cc1 [Compound 44] | 4.516 |  |  |
| O=C(Nc1cc2ccccc2oc1=O)c1ccc(Cl)cc1 [Compound 45] | 5.71 |  |  |
| COc1ccc(C(=O)Nc2cc3ccccc3oc2=O)cc1OC [Compound 46] | 4.234 |  |  |
| COc1cc(C(=O)Nc2cc3ccccc3oc2=O)cc(OC)c1OC [Compound 47] | 4.139 |  |  |
| O=C(Nc1cc2ccccc2oc1=O)c1ccc(Cl)c(Cl)c1 [Compound 48] | 5.225 |  |  |
| O=C(Nc1cc2ccccc2oc1=O)C1CCCCC1 [Compound 49] | 4.301 |  |  |
| COc1ccc(-c2cc3cc(OC)ccc3oc2=O)cc1 [Compound 52] | 7.143 |  |  |
| COc1ccc(-c2cc3cc(Br)ccc3oc2=O)cc1 [Compound 53] | 8.222 |  |  |
| COc1ccc2oc(=O)c(-c3ccccc3)cc2c1 [Compound 62] | 6.384 |  |  |
| Cc1ccc2oc(=O)c(-c3ccc(Br)cc3)cc2c1 [Compound 64, 3-(4′-bromophenyl)-6-methylcoumarin] | 9.412 |  | > 6.5 |
| COc1ccc2oc(=O)c(-c3ccc(Br)cc3)cc2c1 [Compound 66, 3-(4′-bromophenyl)-6-mehtoxycoumarin] | 9.495 |  | > 6.5 |
| COc1ccc2oc(=O)c(-c3cccc(Br)c3)cc2c1 [Compound 67, 3-(3′-bromophenyl)-6-methoxycoumarin] | 9.187 |  | > 6.5 |
| O=c1oc2ccc(O)cc2cc1-c1cccc(Br)c1 [Compound 69] | 8.097 |  | > 6.5 |
| O=c1oc2ccc(OC3CCCC3)cc2cc1-c1ccc(Br)cc1 [Compound 70] | 5.154 |  |  |
| CC(=O)COc1ccc2oc(=O)c(-c3cccc(Br)c3)cc2c1 [Compound 71] | 5.83 |  |  |

| SMILES | pIC50 MAO-B | activity against MAO-B isoform (data set compounds) | MAO-B pIC50 (data set compounds) |
| --- | --- | --- | --- |
| O=C(O)COc1ccc2oc(=O)c(-c3cccc(Br)c3)cc2c1 [Compound 74] | 8.62 |  | > 6.5 |
| COc1ccc(-c2cc3c(ccc4ccccc43)oc2=O)cc1 [Compound 75] | 7.237 |  |  |
| COc1cccc(-c2cc3c(ccc4ccccc43)oc2=O)c1 [Compound 76] | 8.613 |  | > 6.5 |
| COc1ccccc1-c1cc2c(ccc3ccccc32)oc1=O [Compound 77] | 7.385 |  |  |
| COc1ccc(-c2cc3c(ccc4ccccc43)oc2=O)cc1OC [Compound 78] | 7.312 |  | > 6.5 |
| COc1cc(-c2cc3c(ccc4ccccc43)oc2=O)cc(OC)c1OC [Compound 79] | 5.851 |  |  |
| Cc1cccc(-c2cc3c(ccc4ccccc43)oc2=O)c1 [Compound 80] | 5.62 |  |  |
| O=c1oc2ccc3ccccc3c2cc1-c1ccccc1O [Compound 83] | 5.496 |  |  |
| O=c1oc2ccc3ccccc3c2cc1-c1cc(O)cc(O)c1 [Compound 85] | 4.503 |  |  |
| Cc1ccc2oc(=O)c(-c3ccccc3[N+](=O)[O-])cc2c1 [Compound 86] | 5.258 |  |  |
| Cc1ccc2oc(=O)c(-c3cccc([N+](=O)[O-])c3)cc2c1 [Compound 87] | 8.222 |  |  |
| Cc1ccc2oc(=O)c(-c3ccccc3N)cc2c1 [Compound 89] |  |  | 5.664 |
| Cc1ccc2oc(=O)c(-c3cccc(N)c3)cc2c1 [Compound 90] | 8.658 |  |  |
| Cc1ccc2oc(=O)c(-c3ccc(N)cc3)cc2c1 [Compound 91] | 8.387 |  | > 6.5 |
| COc1cc(C(=O)Nc2c(O)c3ccccc3oc2=O)cc(OC)c1OC [Compound 92] | 4.433 |  |  |
| O=C(Nc1c(O)c2ccccc2oc1=O)c1ccc(Cl)c(Cl)c1 [Compound 93] | 4.721 |  |  |
| O=C(Nc1cc2ccccc2oc1=O)c1cccs1 [Compound 94] | 5.644 |  |  |
| O=C(Nc1c(O)c2ccccc2oc1=O)c1cccs1 [Compound 95] | 4.81 |  |  |
| O=C(Nc1cc2ccccc2oc1=O)c1cccnc1 [Compound 96] | 4.676 |  |  |
| O=C(Nc1c(O)c2ccccc2oc1=O)C1CCCCC1 [Compound 97] | 4.648 |  |  |
| Cc1ccc2oc(=O)c(C(=O)Nc3ccccc3C)cc2c1 [Compound 98] | 7.928 |  |  |
